Read-outs that look alike come from different tables or passages of the source.
Tests used:
[1] = system: LPS induced TNFα production in THP-1 cells; assay: LPS induced THP-1 cell cytokine production assay, TNFα (HTRF); assay type: cell-based; conditions: Homo sapiens
Experimental: (§1) Provided compounds were also assayed in an LPS (Lipopolysacharide) induced THP-1 cell cytokine (TNFα and IL8) production assay. The protocol for this assay was as follows below. THP-1 cells from ATCC (TIB-202) were cultured in RPMI Medium 1640 (Invitrogen, Cat No. […] LPS-EK ultra pure (Invivogen, Cat No. tlrl-peklps) was used to induce IL8 and TNFα production, that was detected in the cell culture supernatant by IL8 HTRF kit (Cisbio, Cat No. 62IL8PEB) and TNFα HTRF kit (Cisbio, Cat No. 62[…]), as per manufacturer instructions. Cells were cultured in 96 well assay plates at 100,000 cells per well, and compounds diluted in final 0.3% DMSO were pre-incubated with cells for 1 hour prior to stimulation with 300 ng/mL LPS. […] The compound numbers correspond to the compound numbers in Table 1.

[2] = system: LPS induced IL8 production in THP-1 cells; assay: LPS induced THP-1 cell cytokine production assay, IL8 (HTRF); assay type: cell-based; conditions: Homo sapiens
Experimental: as §1

IRAK4 = biological target: T1, IRAK4 (Homo sapiens, UniProt Q9NWZ3); assay: IRAK-4 activity inhibition assay (Caliper, Peptide 8, 37 μM ATP); assay type: biochemical; conditions: 3.5 nM IRAK4, 1.5 μM Peptide 8, 37 μM ATP, 28° C. 40 minutes; read-out: IRAK-4 activity inhibition IC50
T1 construct: purchased CARNA Bioscience 09-145
T1 sequence (Q9NWZ3 1-460): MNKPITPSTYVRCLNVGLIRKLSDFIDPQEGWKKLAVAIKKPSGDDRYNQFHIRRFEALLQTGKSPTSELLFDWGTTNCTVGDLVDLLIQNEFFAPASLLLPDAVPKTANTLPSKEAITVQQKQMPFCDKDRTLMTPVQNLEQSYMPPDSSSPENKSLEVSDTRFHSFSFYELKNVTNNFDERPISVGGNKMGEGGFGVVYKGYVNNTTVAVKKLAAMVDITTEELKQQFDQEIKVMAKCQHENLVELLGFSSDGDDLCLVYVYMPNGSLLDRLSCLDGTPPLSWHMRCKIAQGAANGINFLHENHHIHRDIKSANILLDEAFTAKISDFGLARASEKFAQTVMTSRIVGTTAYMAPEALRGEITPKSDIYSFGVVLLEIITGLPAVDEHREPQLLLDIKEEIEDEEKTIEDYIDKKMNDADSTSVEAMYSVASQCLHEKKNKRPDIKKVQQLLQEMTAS

[3] = THP-1 cells, 300 ng/mL LPS, 1 hour pre-incubation, supernatant at 5 hours, read-out: TNFα production IC50
[4] = THP-1 cells, 300 ng/mL LPS, 1 hour pre-incubation, supernatant at 5 hours / 16 hours, read-out: IL8 production IC50

Row | SMILES | IC50 ([1]; THP-1, read-out: TNFα production IC50) [nM] | IC50 ([2]; THP-1, read-out: IL8 production IC50) [nM] | IC50 (IRAK4) [µM] | IC50 [1, 3] [nM] | IC50 [2, 4] [nM]
1 | CN(C)[C@H]1CC[C@H](Nc2ncnc3sc4c(c23)CCC4)CC1 [Compound I-12, trans-N^1-(6,7-dihydro-5H-cyclopenta[4,5]thieno[2,3-d]pyrimidin-4-yl)-N^4,N^4-dimethylcyclohexane-1,4-diamine] | 500 to 1000 | 500 to 1000 |  |  | 
2 | CN(CC(=O)N1CCCC1)[C@H]1CC[C@H](Nc2ncnc3sc4c(c23)CCC4)CC1 [Compound I-124, 2-[methyl[4-([7-thia-9,11-diazatricyclo[6.4.0.0[2,6]]dodeca-1(12),2(6),8,10-tetraen-12-yl]amino)cyclohexyl]amino]-1-(pyrrolidin-1-yl)ethan-1-one] |  |  | < 5 | 1000 to 5000 | 500 to 1000
3 | CN(CC(=O)N1CCCC1)[C@H]1CC[C@H](Oc2ncnc3sc4c(c23)CCC4)CC1 [Compound I-133] |  |  | < 5 | 1000 to 5000 | 1000 to 5000
4 | CN(Cc1cccc(C(=O)O)c1)[C@H]1CC[C@H](Nc2ncnc3sc4c(c23)CCC4)CC1 [Compound I-167, 3-([methyl[4-([7-thia-9,11-diazatricyclo[6.4.0.0^[2,6]]dodeca-1(8),2(6),9,11-tetraen-12-yl]amino)cyclohexyl]amino]methyl)benzoic acid] |  |  | < 5 |  | 
5 | CN(CCc1ccccc1)[C@H]1CC[C@H](Nc2ncnc3sc4c(c23)CCC4)CC1 [Compound I-168, 1-N-methyl-1-N-(2-phenylethyl)-4-N-[7-thia-9,11-diazatricyclo[6.4.0.0^[2,6]]dodeca-1(8),2(6),9,11-tetraen-12-yl]cyclohexane-1,4-diamine] |  |  | < 5 |  | 
6 | COCCN(C)[C@H]1CC[C@H](Nc2ncnc3sc4c(c23)CCC4)CC1 [Compound I-169, 1-N-(2-methoxyethyl)-1-N-methyl-4-N-[7-thia-9,11-diazatricyclo[6.4.0.0^[2,6]]dodeca-1(8),2(6),9,11-tetraen-12-yl]cyclohexane-1,4-diamine] |  |  | < 5 |  | 
7 | CN(C)[C@H]1CC[C@H](Nc2nc(Nc3ccccc3)nc3sc4c(c23)CCC4)CC1 [Compound I-201, 12-N-[4-(dimethylamino)cyclohexyl]-10-N-phenyl-7-thia-9,11-diazatricyclo[6.4.0.0[2,6]]dodeca-1(8),2(6),9,11-tetraene-10,12-diamine] |  |  |  | 1000 to 5000 | 1000 to 5000

From patent publication US9340554B2, “IRAK inhibitors and uses thereof” (Nimbus Iris, Inc., priority 2011, dated 2016)
